The values that follow are results of earlier work, collected in US20060257483A1, “Controlled release bupropion dosage forms” (ABRIKA Pharmaceuticals, priority 2005, published 2006).

SMILES strings stand for the structures. Where a name gives a salt, the structure may show the parent alone.

For the series the following is noted: powder.

For `CC(NC(C)(C)C)C(=O)c1cccc(Cl)c1` (stereo not shown) [bupropion hydrochloride], the solubility in water result is “highly soluble in water”.
